This note sets out measurements from ChEMBL document CHEMBL2396516, “Synthesis of novel bis(pyrimido[5,4-c]quinoline-2,4(1H,3H)-dione) and its derivatives: evaluation of their antioxidant properties” (Bioorg Med Chem Lett, 2013).

Converted amounts (≈) assume the structure as drawn.

What all share (format): functional
Assay [1] has as its system Radical scavenging activity. The assay is described as follows: Antioxidant activity assessed as DPPH free radical scavenging activity at 20 ug/ml by spectrophotometry. (The DPPH test is a chemical assay of radical scavenging.)
Assay [2] relates to Radical scavenging activity. Description: Antioxidant activity assessed as DPPH free radical scavenging activity by spectrophotometry.
Assay [3] can be described thus: Antioxidant activity assessed as reduction of ferric ion to ferrous ion by FRAP assay.

The term IC50 denotes the concentration needed to halve the response being measured. Turning to `O=c1[nH]c2c(c(=O)[nH]1)C(c1ccccc1Cl)Nc1cc3c(cc1-2)NC(c1ccccc1Cl)c1c-3[nH]c(=O)[nH]c1=O` (stereo not drawn), the Activity in assay [1] was determined as 84%. In addition, the IC50 in assay [2] was 12.05 µg/mL (≈ 21 µM); in assay [3] it was 24.01 µg/mL (≈ 41.9 µM).
In the case of `O=c1[nH]c2c(c(=O)[nH]1)C(c1ccccc1Cl)Nc1nc3c(cc1-2)-c1[nH]c(=O)[nH]c(=O)c1C(c1ccccc1Cl)N3` (stereo not drawn), in assay [1], the Activity stood at 80.8%. For the same compound, the IC50 in assay [2] amounted to 12.42 µg/mL (≈ 21.6 µM); in assay [3], 25.51 µg/mL (≈ 44.4 µM).
The matching figures for `O=c1[nH]c2c(c(=O)[nH]1)C(c1ccc([N+](=O)[O-])cc1)Nc1cc3c(cc1-2)NC(c1ccc([N+](=O)[O-])cc1)c1c-3[nH]c(=O)[nH]c1=O` (stereo not drawn): 80.9%, 12.44 µg/mL (≈ 20.9 µM) and 25.01 µg/mL (≈ 42.1 µM).
On to `O=c1[nH]c2c(c(=O)[nH]1)C(c1ccccc1)Nc1nc3c(cc1-2)-c1[nH]c(=O)[nH]c(=O)c1C(c1ccccc1)N3` (stereo not drawn), for which the Activity in assay [1] came out at 70.6%. Further, the IC50 came out at 14.21 µg/mL (≈ 28.1 µM) in assay [2] and 33.91 µg/mL (≈ 67.1 µM) in assay [3].
The like results for `O=c1[nH]c(=S)[nH]c2c1C(c1ccc([N+](=O)[O-])cc1)Nc1nc3c(cc1-2)-c1[nH]c(=S)[nH]c(=O)c1C(c1ccc([N+](=O)[O-])cc1)N3` (stereo not drawn) were, in that order, 74%, 13.56 µg/mL (≈ 21.6 µM) and 26.25 µg/mL (≈ 41.8 µM).
As to `O=c1[nH]c(=S)[nH]c2c1C(c1ccccc1Cl)Nc1cc3c(cc1-2)NC(c1ccccc1Cl)c1c-3[nH]c(=S)[nH]c1=O` (stereo not drawn), the Activity in assay [1] was 84.1%. Also, the figures for the IC50 in assay [2] and in assay [3] were 11.99 µg/mL (≈ 19.8 µM) and 24.46 µg/mL (≈ 40.4 µM), respectively.
In the case of `O=c1[nH]c2c(c(=O)[nH]1)C(c1cccc([N+](=O)[O-])c1)Nc1cc3c(cc1-2)NC(c1cccc([N+](=O)[O-])c1)c1c-3[nH]c(=O)[nH]c1=O` (stereo not drawn), in assay [1], the Activity worked out at 81.7%. The values for the IC50 in assay [2] and in assay [3] were 12.39 µg/mL (≈ 20.8 µM) and 33.28 µg/mL (≈ 56 µM), respectively.
The matching figures for `O=c1[nH]c2c(c(=O)[nH]1)C(c1ccc(Cl)cc1)Nc1cc3c(cc1-2)NC(c1ccc(Cl)cc1)c1c-3[nH]c(=O)[nH]c1=O` (stereo not drawn): 85.2%, 11.8 µg/mL (≈ 20.6 µM) and 23.21 µg/mL (≈ 40.5 µM).
The matching figures for `O=c1[nH]c(=S)[nH]c2c1C(c1ccc([N+](=O)[O-])cc1)Nc1cc3c(cc1-2)NC(c1ccc([N+](=O)[O-])cc1)c1c-3[nH]c(=S)[nH]c1=O` (stereo not drawn): 82.3%, 12.17 µg/mL (≈ 19.4 µM) and 25.21 µg/mL (≈ 40.2 µM).
The matching figures for `O=c1[nH]c(=S)[nH]c2c1C(c1ccccc1[N+](=O)[O-])Nc1nc3c(cc1-2)-c1[nH]c(=S)[nH]c(=O)c1C(c1ccccc1[N+](=O)[O-])N3` (stereo not drawn): 73.6%, 13.6 µg/mL (≈ 21.7 µM) and 30.47 µg/mL (≈ 48.5 µM).
Take `O=c1[nH]c2c(c(=O)[nH]1)C(c1ccc(Cl)cc1)Nc1nc3c(cc1-2)-c1[nH]c(=O)[nH]c(=O)c1C(c1ccc(Cl)cc1)N3` (stereo not drawn): the Activity in assay [1] is 81.1%. Also, the figures for the IC50 in assay [2] and in assay [3] were 12.35 µg/mL (≈ 21.5 µM) and 24.41 µg/mL (≈ 42.5 µM), respectively.
The like results for `O=c1[nH]c(=S)[nH]c2c1C(c1cccc([N+](=O)[O-])c1)Nc1cc3c(cc1-2)NC(c1cccc([N+](=O)[O-])c1)c1c-3[nH]c(=S)[nH]c1=O` (stereo not drawn) were, in that order, 79.3%, 12.68 µg/mL (≈ 20.2 µM) and 33.7 µg/mL (≈ 53.8 µM).
With `O=c1[nH]c2c(c(=O)[nH]1)C(c1ccc([N+](=O)[O-])cc1)Nc1nc3c(cc1-2)-c1[nH]c(=O)[nH]c(=O)c1C(c1ccc([N+](=O)[O-])cc1)N3` (stereo not drawn), the Activity in assay [1] turned out to be 74.2%. Moreover, the figures for the IC50 in assay [2] and in assay [3] were 13.48 µg/mL (≈ 22.6 µM) and 26.06 µg/mL (≈ 43.8 µM), respectively.
The like results for `O=c1[nH]c(=S)[nH]c2c1C(c1ccccc1)Nc1cc3c(cc1-2)NC(c1ccccc1)c1c-3[nH]c(=S)[nH]c1=O` (stereo not drawn) were, in that order, 79.6%, 12.62 µg/mL (≈ 23.5 µM) and 32.1 µg/mL (≈ 59.8 µM).
The like results for `O=c1[nH]c(=S)[nH]c2c1C(c1ccc(Cl)cc1)Nc1cc3c(cc1-2)NC(c1ccc(Cl)cc1)c1c-3[nH]c(=S)[nH]c1=O` (stereo not drawn) were, in that order, 84.4%, 11.93 µg/mL (≈ 19.7 µM) and 24.11 µg/mL (≈ 39.8 µM).
On to `O=c1[nH]c2c(c(=O)[nH]1)C(c1ccccc1[N+](=O)[O-])Nc1nc3c(cc1-2)-c1[nH]c(=O)[nH]c(=O)c1C(c1ccccc1[N+](=O)[O-])N3` (stereo not drawn), for which, in assay [1], the Activity stood at 74%. Also, the 50% inhibitory concentration (IC50) in assay [2] was found to be 13.56 µg/mL (≈ 22.8 µM); in assay [3], 31.39 µg/mL (≈ 52.7 µM).
Consider `O=c1[nH]c2c(c(=O)[nH]1)C(c1ccccc1)c1ccccc1N2` (stereo not drawn), for which the IC50 in assay [2] worked out at 18.91 µg/mL (≈ 64.9 µM).
In the case of `O=c1[nH]c2c(c(=O)[nH]1)C(c1cccc([N+](=O)[O-])c1)Nc1nc3c(cc1-2)-c1[nH]c(=O)[nH]c(=O)c1C(c1cccc([N+](=O)[O-])c1)N3` (stereo not drawn), the Activity in assay [1] was 70.2%. In addition, the values for the half-maximal inhibitory concentration (IC50) in assay [2] and in assay [3] were 14.24 µg/mL (≈ 23.9 µM) and 34.9 µg/mL (≈ 58.6 µM), respectively.
The matching figures for `O=c1[nH]c(=S)[nH]c2c1C(c1ccccc1)Nc1nc3c(cc1-2)-c1[nH]c(=S)[nH]c(=O)c1C(c1ccccc1)N3` (stereo not drawn): 70.4%, 14.25 µg/mL (≈ 26.5 µM) and 33.5 µg/mL (≈ 62.3 µM).
The like results for `O=c1[nH]c2c(c(=O)[nH]1)C(c1ccccc1[N+](=O)[O-])Nc1cc3c(cc1-2)NC(c1ccccc1[N+](=O)[O-])c1c-3[nH]c(=O)[nH]c1=O` (stereo not drawn) were, in that order, 82.7%, 12.07 µg/mL (≈ 20.3 µM) and 29.08 µg/mL (≈ 48.9 µM).
As to `O=c1[nH]c(=S)[nH]c2c1C(c1ccccc1Cl)Nc1nc3c(cc1-2)-c1[nH]c(=S)[nH]c(=O)c1C(c1ccccc1Cl)N3` (stereo not drawn), in assay [1], the Activity was 80.6%. Further, the results for the IC50 in assay [2] and in assay [3] were 12.41 µg/mL (≈ 20.5 µM) and 25.07 µg/mL (≈ 41.3 µM), respectively.
The matching figures for `O=c1[nH]c(=S)[nH]c2c1C(c1ccc(Cl)cc1)Nc1nc3c(cc1-2)-c1[nH]c(=S)[nH]c(=O)c1C(c1ccc(Cl)cc1)N3` (stereo not drawn): 80.9%, 12.36 µg/mL (≈ 20.4 µM) and 25 µg/mL (≈ 41.2 µM).
The like results for `O=c1[nH]c2c(c(=O)[nH]1)C(c1ccccc1)Nc1cc3c(cc1-2)NC(c1ccccc1)c1c-3[nH]c(=O)[nH]c1=O` (stereo not drawn) were, in that order, 82%, 12.15 µg/mL (≈ 24.1 µM) and 32.76 µg/mL (≈ 64.9 µM).
In the case of `O=c1[nH]c(=S)[nH]c2c1C(c1ccccc1[N+](=O)[O-])Nc1cc3c(cc1-2)NC(c1ccccc1[N+](=O)[O-])c1c-3[nH]c(=S)[nH]c1=O` (stereo not drawn), in assay [1], the Activity is 82%. Moreover, the concentration for half-maximal inhibition (IC50) was found to be 12.15 µg/mL (≈ 19.4 µM) in assay [2] and 29.5 µg/mL (≈ 47.1 µM) in assay [3].
The matching figures for `O=c1[nH]c(=S)[nH]c2c1C(c1cccc([N+](=O)[O-])c1)Nc1nc3c(cc1-2)-c1[nH]c(=S)[nH]c(=O)c1C(c1cccc([N+](=O)[O-])c1)N3` (stereo not drawn): 70.1%, 14.34 µg/mL (≈ 22.8 µM) and 34.93 µg/mL (≈ 55.7 µM).
